Test system: patients with acute lymphoblastic leukemia
Test: Adverse events (CTCAE version 4.0), Phase II study NCI-9775 of sapanisertib monotherapy
Format: in vivo
Conditions: treatment-related; 15 evaluable
Protocol: Responders could continue on the same dose or proceed to allogeneic hematopoietic cell transplant if available. Non‐responders (but tolerating drug) could increase their dose to 4 mg orally for 21 days every 28 days (dose level + 1) starting in Cycle 3 and 4 mg orally continuously (dose level + 2) starting in Cycle 5 (if they tolerated dose level + 1). Dose reduction was recommended for toxicity (dose level − 1: 2 mg daily for 21 days every 28 days; dose level − 2: 2 mg daily for 5 days/week for 3 weeks every 4 weeks). […] Intrathecal chemotherapy was allowed per institutional standard policies. In‐home blood glucose monitoring was performed daily to monitor blood sugar (a glucometer was given to every patient on the study). Discontinuation of therapy was recommended for disease progression, severe toxicity, lack of response, proceeding to hematopoietic cell transplant, or prolonged delay of the subsequent cycle (>1 month delay for therapy‐related toxicity or >2 months delay for unrelated toxicity).
The primary endpoint was the proportion of successes, which was estimated by the number of successes divided by the total number of evaluable patients. Secondary endpoints of duration of response (CR or CRi) and overall survival (OS) were evaluated using Kaplan–Meier techniques; the frequency of proceeding to allogeneic stem cell transplant after achieving response and adverse events (AEs), as evaluated using reported the NCI Common Terminology Criteria for Adverse Events (CTCAE) version 4.0, were presented using descriptive statistics.

With CC(C)n1nc(-c2ccc3oc(N)nc3c2)c2c(N)ncnc21 [sapanisertib] the “Aspartate aminotransferase increased grade 2” value was 0 (0) N (%), the “Aspartate aminotransferase increased grade 3” value was 0 (0) N (%) and the “Aspartate aminotransferase increased grade 4” value was 0 (0) N (%). For the same molecule, the “Aspartate aminotransferase increased grade 5” value was 0 (0) N (%), the “Bloating grade 1” value was 1 (7) N (%) and the “Bloating grade 2” value was 0 (0) N (%). The “Bloating grade 3” value was 0 (0) N (%), the “Bloating grade 4” value was 0 (0) N (%) and the “Bloating grade 5” value was 0 (0) N (%). The “Blood bilirubin increased grade 1” value was 1 (7) N (%), the “Blood bilirubin increased grade 2” value was 0 (0) N (%) and the “Blood bilirubin increased grade 3” value was 1 (7) N (%). For the same molecule, the “Blood bilirubin increased grade 4” value was 0 (0) N (%), the “Blood bilirubin increased grade 5” value was 0 (0) N (%) and the “Confusion grade 1” value was 0 (0) N (%). The “Confusion grade 2” value was 0 (0) N (%), the “Confusion grade 3” value was 1 (7) N (%) and the “Confusion grade 4” value was 0 (0) N (%). The “Confusion grade 5” value was 0 (0) N (%), the “Constipation grade 1” value was 1 (7) N (%) and the “Constipation grade 2” value was 0 (0) N (%). The “Constipation grade 3” value was 0 (0) N (%), the “Constipation grade 4” value was 0 (0) N (%) and the “Constipation grade 5” value was 0 (0) N (%). For the same molecule, the “Cough grade 1” value was 1 (7) N (%), the “Cough grade 2” value was 0 (0) N (%) and the “Cough grade 3” value was 0 (0) N (%). The “Cough grade 4” value was 0 (0) N (%), the “Cough grade 5” value was 0 (0) N (%) and the “Delirium grade 1” value was 0 (0) N (%). The “Delirium grade 2” value was 0 (0) N (%), the “Delirium grade 3” value was 1 (7) N (%) and the “Delirium grade 4” value was 0 (0) N (%). The “Delirium grade 5” value was 0 (0) N (%), the “Diarrhea grade 1” value was 1 (7) N (%) and the “Diarrhea grade 2” value was 0 (0) N (%). For the same molecule, the “Diarrhea grade 3” value was 0 (0) N (%), the “Diarrhea grade 4” value was 0 (0) N (%) and the “Diarrhea grade 5” value was 0 (0) N (%). For the same molecule, the “Dysgeusia grade 1” value was 1 (7) N (%), the “Dysgeusia grade 2” value was 0 (0) N (%) and the “Dysgeusia grade 3” value was 0 (0) N (%). The “Dysgeusia grade 4” value was 0 (0) N (%), the “Dysgeusia grade 5” value was 0 (0) N (%) and the “Edema limbs grade 1” value was 1 (7) N (%). For the same molecule, the “Edema limbs grade 2” value was 0 (0) N (%), the “Edema limbs grade 3” value was 0 (0) N (%) and the “Edema limbs grade 4” value was 0 (0) N (%). For the same molecule, the “Edema limbs grade 5” value was 0 (0) N (%), the “Fall grade 1” value was 0 (0) N (%) and the “Fall grade 2” value was 1 (7) N (%). For the same molecule, the “Fall grade 3” value was 0 (0) N (%), the “Fall grade 4” value was 0 (0) N (%) and the “Fall grade 5” value was 0 (0) N (%). For the same molecule, the “Fatigue grade 1” value was 1 (7) N (%), the “Fatigue grade 2” value was 0 (0) N (%) and the “Fatigue grade 3” value was 1 (7) N (%). For the same molecule, the “Fatigue grade 4” value was 0 (0) N (%), the “Fatigue grade 5” value was 0 (0) N (%) and the “Febrile neutropenia grade 1” value was 0 (0) N (%). The “Febrile neutropenia grade 2” value was 0 (0) N (%), the “Febrile neutropenia grade 3” value was 1 (7) N (%) and the “Febrile neutropenia grade 4” value was 0 (0) N (%). The “Febrile neutropenia grade 5” value was 0 (0) N (%), the “Fibrinogen decreased grade 1” value was 0 (0) N (%) and the “Fibrinogen decreased grade 2” value was 0 (0) N (%). The “Fibrinogen decreased grade 3” value was 1 (7) N (%), the “Fibrinogen decreased grade 4” value was 0 (0) N (%) and the “Fibrinogen decreased grade 5” value was 0 (0) N (%). The “Hyperglycemia grade 1” value was 0 (0) N (%), the “Hyperglycemia grade 2” value was 0 (0) N (%) and the “Hyperglycemia grade 3” value was 2 (13) N (%). The “Hyperglycemia grade 4” value was 0 (0) N (%), the “Hyperglycemia grade 5” value was 0 (0) N (%) and the “Hypertriglyceridemia grade 1” value was 1 (7) N (%). For the same molecule, the “Hypertriglyceridemia grade 2” value was 0 (0) N (%), the “Hypertriglyceridemia grade 3” value was 0 (0) N (%) and the “Hypertriglyceridemia grade 4” value was 0 (0) N (%). The “Hypertriglyceridemia grade 5” value was 0 (0) N (%), the “Leukocytosis grade 1” value was 0 (0) N (%) and the “Leukocytosis grade 2” value was 0 (0) N (%). For the same molecule, the “Leukocytosis grade 3” value was 1 (7) N (%), the “Leukocytosis grade 4” value was 0 (0) N (%) and the “Leukocytosis grade 5” value was 0 (0) N (%). For the same molecule, the “Lymphocyte count decreased grade 1” value was 0 (0) N (%), the “Lymphocyte count decreased grade 2” value was 0 (0) N (%) and the “Lymphocyte count decreased grade 3” value was 2 (13) N (%). The “Lymphocyte count decreased grade 4” value was 0 (0) N (%), the “Lymphocyte count decreased grade 5” value was 0 (0) N (%) and the “Mucositis oral grade 1” value was 0 (0) N (%). The “Mucositis oral grade 2” value was 0 (0) N (%), the “Mucositis oral grade 3” value was 3 (20) N (%) and the “Mucositis oral grade 4” value was 0 (0) N (%). The “Mucositis oral grade 5” value was 0 (0) N (%), the “Neoplasms grade 1” value was 0 (0) N (%) and the “Neoplasms grade 2” value was 0 (0) N (%). The “Neoplasms grade 3” value was 1 (7) N (%), the “Neoplasms grade 4” value was 0 (0) N (%) and the “Neoplasms grade 5” value was 0 (0) N (%). The “Neutrophil count decreased grade 1” value was 0 (0) N (%), the “Neutrophil count decreased grade 2” value was 0 (0) N (%) and the “Neutrophil count decreased grade 3” value was 0 (0) N (%). For the same molecule, the “Neutrophil count decreased grade 4” value was 1 (7) N (%), the “Neutrophil count decreased grade 5” value was 0 (0) N (%) and the “Oral pain grade 1” value was 1 (7) N (%). For the same molecule, the “Oral pain grade 2” value was 0 (0) N (%), the “Oral pain grade 3” value was 0 (0) N (%) and the “Oral pain grade 4” value was 0 (0) N (%). For the same molecule, the “Oral pain grade 5” value was 0 (0) N (%), the “Paresthesia grade 1” value was 1 (7) N (%) and the “Paresthesia grade 2” value was 0 (0) N (%). For the same molecule, the “Paresthesia grade 3” value was 0 (0) N (%), the “Paresthesia grade 4” value was 0 (0) N (%) and the “Paresthesia grade 5” value was 0 (0) N (%). For the same molecule, the “Pharyngolaryngeal pain grade 1” value was 0 (0) N (%), the “Pharyngolaryngeal pain grade 2” value was 1 (7) N (%) and the “Pharyngolaryngeal pain grade 3” value was 0 (0) N (%). The “Pharyngolaryngeal pain grade 4” value was 0 (0) N (%), the “Pharyngolaryngeal pain grade 5” value was 0 (0) N (%) and the “Platelet count decreased grade 1” value was 0 (0) N (%). The “Platelet count decreased grade 2” value was 0 (0) N (%), the “Platelet count decreased grade 3” value was 1 (7) N (%) and the “Platelet count decreased grade 4” value was 3 (20) N (%). For the same molecule, the “Platelet count decreased grade 5” value was 0 (0) N (%), the “Pneumonitis grade 1” value was 0 (0) N (%) and the “Pneumonitis grade 2” value was 0 (0) N (%). The “Pneumonitis grade 3” value was 1 (7) N (%), the “Pneumonitis grade 4” value was 0 (0) N (%) and the “Pneumonitis grade 5” value was 0 (0) N (%). The “Pruritus grade 1” value was 1 (7) N (%), the “Pruritus grade 2” value was 0 (0) N (%) and the “Pruritus grade 3” value was 0 (0) N (%). For the same molecule, the “Pruritus grade 4” value was 0 (0) N (%), the “Pruritus grade 5” value was 0 (0) N (%) and the “Resp, thoracic, mediastinal grade 1” value was 0 (0) N (%). The “Resp, thoracic, mediastinal grade 2” value was 0 (0) N (%), the “Resp, thoracic, mediastinal grade 3” value was 0 (0) N (%) and the “Resp, thoracic, mediastinal grade 4” value was 1 (7) N (%). For the same molecule, the “Resp, thoracic, mediastinal grade 5” value was 0 (0) N (%), the “Vaginal inflammation grade 1” value was 0 (0) N (%) and the “Vaginal inflammation grade 2” value was 1 (7) N (%). For the same molecule, the “Vaginal inflammation grade 3” value was 0 (0) N (%), the “Vaginal inflammation grade 4” value was 0 (0) N (%) and the “Vaginal inflammation grade 5” value was 0 (0) N (%). For the same molecule, the “Vomiting grade 1” value was 1 (7) N (%), the “Vomiting grade 2” value was 0 (0) N (%) and the “Vomiting grade 3” value was 0 (0) N (%). The “Vomiting grade 4” value was 0 (0) N (%), the “Vomiting grade 5” value was 0 (0) N (%) and the “Wheezing grade 1” value was 0 (0) N (%). For the same molecule, the “Wheezing grade 2” value was 1 (7) N (%), the “Wheezing grade 3” value was 0 (0) N (%) and the “Wheezing grade 4” value was 0 (0) N (%). The “Wheezing grade 5” value was 0 (0) N (%), the “White blood cell decreased grade 1” value was 0 (0) N (%) and the “White blood cell decreased grade 2” value was 0 (0) N (%). The “White blood cell decreased grade 3” value was 0 (0) N (%), the “White blood cell decreased grade 4” value was 2 (13) N (%) and the “White blood cell decreased grade 5” value was 0 (0) N (%).

From publication PMC10726920 (Cancer Medicine, 2023)
